Where “and” joins values, the source holds several entries; their conditions need not be identical. Identical values can stand only once. Like-named read-outs stand apart in the source and are kept apart here.
Key:
E. Coli ATCC 25922 = test system: E. Coli ATCC 25922
Procedure: (§1) SEQ ID NO: 1 stocks were made at 5.12 mg/mL in water adjusted to pH of 5.0 with 1% glacial acetic acid.
(§2) The test organisms (Table 7) consisted of clinical isolates from the Micromyx (MMX) repository, a reference isolate from the American Type Culture Collection (ATCC, Manassas, VA) and the Centers for Disease Control (CDC, Atlanta GA). Upon initial receipt, the isolates were streaked under suitable conditions onto agar medium appropriate to each organism. The organisms were incubated for 18-24 hr at 35° C. in ambient atmosphere. Colonies harvested from these growth plates were resuspended in the appropriate medium containing a cryoprotectant. Aliquots of each suspension were then stored frozen at −80° C. Prior to testing, all organisms were cultured onto trypticase soy agar containing 5% sheep blood. The agar plates were incubated as described above.
(§3) The Test media used for MIC and FIC were testing were cation-adjusted Mueller-Hinton broth (CAMHB) and Roswell Park Memorial Institute (RPMI-1640), buffered with 3-(N-morpholino)propanesulfonic acid (MOPS). Each test media was supplemented with 0.002% Tween-80 (P-80) prior to testing.
(§4) MIC assay plates were prepared for broth microdilution in accordance with guidelines from the Clinical and Laboratory Standards Institute (CLSI); automated liquid handlers (Biomek 3000 and Biomek FX) and multi-channel pipettes were used to conduct serial dilutions and liquid transfers. MIC assay plates were prepared using a 96-well, deep-well microdilution plate that mimicked the layout of the daughter plates.
(§5) For the mother plate, wells across the standard 96-well microdilution plate were filled with 150 μL of sterile saline 0.002% P-80 in columns 2 through 12. […] The Biomek 300 was used to make eleven 2-fold serial dilutions horizontally across each row of the plate from columns 2 through 11. The Biomek FX was then used to transfer 5 μL of the SEQ ID NO: 1 and saline 0.002% P-80 to the daughter plates.
(§6) A standardized inoculum of each organism was prepared per CLSI methods. Suspensions were prepared to equal a 0.5 McFarland standard followed by a 1:10 dilution into test medium. The inocula were dispensed into sterile reservoirs divided by length and the Biomek 3000 was used to inoculate the plates. Daughter plates were placed on the Biomek 3000 work surface in reverse orientation so that inoculation took place from low to high drug concentration. The Biomek 3000 delivered 10 μL of the diluted suspension into each well. These inoculations yielded a final cell concentration in the daughter plates of approximately 5×10^5 CFU/mL in each well. Plates were incubated at 35° C. for 16-20 hr. The microplates were viewed from the bottom using a plate viewer and the MIC was recorded as the lowest concentration of drug that inhibited visible growth of the organism.

E. Coli ATCC BAA-2469 = test system: E. Coli ATCC BAA-2469
Procedure: as §1, §2, §3, §4, §5, §6

E. Coli CDC 0451 = test system: E. Coli CDC 0451
Procedure: as §1, §2, §3, §4, §5, §6

P. aeruginosa ATCC 27853 = test system: P. aeruginosa ATCC 27853
Procedure: as §1, §2, §3, §4, §5, §6

P. aeruginosa CDC 0509 = test system: P. aeruginosa CDC 0509
Procedure: as §1, §2, §3, §4, §5, §6

P. aeruginosa CDC 0515 [1] = test system: P. aeruginosa CDC 0515
Procedure: as §1, §2, §3, §4, §5, §6

S. aureus ATCC 29213 = test system: S. aureus ATCC 29213
Procedure: as §1, §2, §3, §4, §5, §6

S. aureus NRS 382 = test system: S. aureus NRS 382
Procedure: as §1, §2, §3, §4, §5, §6

S. aureus NRS 384 = test system: S. aureus NRS 384
Procedure: as §1, §2, §3, §4, §5, §6

S. epidermidis MMX 3628 = test system: S. epidermidis MMX 3628
Procedure: as §1, §2, §3, §4, §5, §6

S. epidermidis MMX 5129 = test system: S. epidermidis MMX 5129
Procedure: as §1, §2, §3, §4, §5, §6

S. epidermidis MMX 8655 = test system: S. epidermidis MMX 8655
Procedure: as §1, §2, §3, §4, §5, §6

P. aeruginosa CDC 0515 [2] = settings: for FICA / MICA: RPMI; for MICA: in combination with SEQ ID NO: 1
Procedure: FIC test ranges were set based on broth microdilution MIC test data. FIC assay plates were prepared in accordance with CLSI guidelines for broth microdilution susceptibility testing; automated liquid handlers, and multi-channel pipettes were used to conduct serial dilutions and liquid transfers.
SEQ ID NO: 1 was tested at two concentration ranges depending on the test media. All organisms tested in CAMHB 0.002% P-80 were tested from 0.015-16 μg/mL; when tested in RPMI 0.002% P-80, the range tested was 0.004-4 μg/mL. For each SEQ ID NO: 1 mother, wells across the standard 96-well microdilution plate were filled with 150 μL of sterile saline 0.002% P-80 in columns 2 through 12. A 300 μL aliquot at 20× the highest final concentration of each dilution range to be tested, was added to each well in column 1 of the plate. The Biomek 3000 was used to make eleven 2-fold serial dilutions horizontally across each row of the plate columns 2 through 11.
The daughter plates were then completed using the Biomek FX to transfer 5 μL of drug solution from each well of the SEQ ID NO: 1 mother plates to the corresponding well in each daughter plate in a single step. […] The preparation of the daughter plates was performed for each media type; two times in total as all organisms were tested in both media types.
A standard inoculum for each organism was prepared per CLSI method. Colonies were picked up from the primary plate and a suspension was prepared equal to 0.5 McFarland turbidity standard. The suspensions were additionally diluted 1:10 in the appropriate broth. A 10 μL standardized inoculum was delivered into each well using the Biomek 3000 from low to high concentration. These inoculations yielded a final cell concentration in the daughter plates of approximately 5×10^5 CFU/mL in each well. […] Exemplary checkboard panels are seen in Table 5 and Table 6. Plates were incubated at 35° C. for 16-20 hr.
The MIC of the horizontal agent (row H) and the MIC of the vertical agent (column 12) were recorded and the wells of the growth-no growth interface for wells containing agents in combination at varying ratios were recorded by row. […] Pinpoint trailing was not interpreted as growth.
For each relevant row of the panel, the FICI was calculated as:
FICdrug A/MICdrug A+FICdrug B/MICdrug=FICI
Mean FICI values were determined for each combination tested by averaging the FICI values as observed on each row of the checkerboard assay (See Table 9, e.g., if there were FICI values for B-G, those FICI values were added together and divided by the number of rows the FICI values which in this case is 6 to get the mean FICI value for that combination).
Using the criteria described by: Odds FC. 2003. Synergy, antagonism, and what the chequerboard puts between them. J Antimicrob Chemother 52(1):1, the mean FICI for the combination was interpreted as follows: ≤0.5=synergy, >0.5-4=additive/indifferent, and >4=antagonism. […] An interpretation of indifference is consistent with growth inhibition at concentrations at or slightly below/above the MICs of the individual agents alone, resulting in a FICI value of >0.5 but […].

[3] = test system: Staphylococcus aureus NRS 382 (USA100 MRSA) biofilm; assay: Wire biofilm time-kill assay (Study 3); format: cell-based; settings: 150 mM sodium bicarbonate, 1 mg/mL; for CFU/mL: per replicate
Text: Study 3. […]
These three vehicles without SEQ ID NO: 1 served as the untreated controls. Double strength Dey/Engley neutralizing broth was used as a neutralizer for dilution and plating during determination of colony-forming units (CFU)/mL at each time point.
In order to establish the biofilm on the wires, the following procedure was followed: An overnight culture of each isolate was made in Tryptic soy broth. K-wires that were cut to 6 mm and sterilized by autoclaving were placed in 24 well plates and inoculated with 1 mL of a normalized bacterial suspension containing approximately 1×10^6 CFU/mL in cation-adjusted Mueller-Hinton broth. The plates containing the wires were incubated for 24 hr at 35° C. followed by removing the planktonic cells by carefully pipetting the medium from the wells. Fresh CAMHB (1 mL) was added to the wells containing the wires and the plates were incubated for an additional 24 hr at 35° C.
After the biofilm was established, the wires were removed from the wells using sterile forceps, rinsed with 1 mL of PBS, and placed in the appropriate treatment well containing 0, 1, 5, or 10 mg/mL SEQ ID NO: […] After the designated time, each wire was removed, rinsed with 1 mL of PBS, and then placed in an Eppendorf tube with 1 mL of double strength Dey-Engley medium. The wires were then sonicated at room temperature for 10 min to dislodge bacteria using a Lab Line Instruments sonicator at a setting of 100%.
A 0.2 mL aliquot of sonicate was removed and pipetted into column 1 of a 96-well plate that contained 180 μL of double strength Dey-Engley medium in columns 2 through 5. […] The plate was then tilted at a […] to allow the diluted sample to track across the agar surface to the opposite side of the plate. The plates were laid flat, allowed to dry at room temperature, then inverted and incubated at 35° C. for approximately 24 hr. Colonies were manually counted to determine the viable count in CFU/mL.

Molecule: O=C([O-])O.[Na+] [Sodium Bicarbonate]
- MIC (E. Coli ATCC 25922; CAMHB): 200 mM
- MIC (E. Coli ATCC 25922; RPMI): 200 mM
- MIC (E. Coli ATCC BAA-2469; CAMHB): 200 mM
- MIC (E. Coli ATCC BAA-2469; RPMI): 200 mM
- MIC (E. Coli CDC 0451; CAMHB): 100 mM
- MIC (E. Coli CDC 0451; RPMI): 200 mM
- MIC (P. aeruginosa ATCC 27853; CAMHB): 200 mM
- MIC (P. aeruginosa ATCC 27853; RPMI): 200 mM
- MIC (P. aeruginosa CDC 0509; CAMHB): 200 mM
- MIC (P. aeruginosa CDC 0509; RPMI): 200 mM
- MIC (P. aeruginosa CDC 0515 [1]; CAMHB): 200 mM
- MIC (P. aeruginosa CDC 0515 [1]; RPMI): 200 mM
- MIC (S. aureus ATCC 29213; CAMHB): >200 mM
- MIC (S. aureus ATCC 29213; RPMI): 200 mM
- MIC (S. aureus NRS 382; CAMHB): 200 mM
- MIC (S. aureus NRS 382; RPMI): 200 mM
- MIC (S. aureus NRS 384; CAMHB): 200 mM
- MIC (S. aureus NRS 384; RPMI): 200 mM
- MIC (S. epidermidis MMX 3628; CAMHB): 100 mM
- MIC (S. epidermidis MMX 3628; RPMI): 200 mM
- MIC (S. epidermidis MMX 5129; CAMHB): 200 mM
- MIC (S. epidermidis MMX 5129; RPMI): 200 mM
- MIC (S. epidermidis MMX 8655; CAMHB): 200 mM
- MIC (S. epidermidis MMX 8655; RPMI): 200 mM
- Drug A MIC (P. aeruginosa CDC 0515 [2]; CAMHB, alone): > 100
- FICA (P. aeruginosa CDC 0515 [2]; checkerboard row A): 0.5
- MICA (P. aeruginosa CDC 0515 [2]; checkerboard row A): 100
- FICA (P. aeruginosa CDC 0515 [2]; checkerboard row B): 0.25
- MICA (P. aeruginosa CDC 0515 [2]; checkerboard row B): 50
- FICA (P. aeruginosa CDC 0515 [2]; checkerboard row C): 0.125
- MICA (P. aeruginosa CDC 0515 [2]; checkerboard row C): 25
- FICA (P. aeruginosa CDC 0515 [2]; checkerboard row D): 0.063
- MICA (P. aeruginosa CDC 0515 [2]; checkerboard row D): 12.5
- FICA (P. aeruginosa CDC 0515 [2]; checkerboard row E): 0.031
- MICA (P. aeruginosa CDC 0515 [2]; checkerboard row E): 6.25
- FICA (P. aeruginosa CDC 0515 [2]; checkerboard row F): 0.016
- MICA (P. aeruginosa CDC 0515 [2]; checkerboard row F): 3.12
- FICA (P. aeruginosa CDC 0515 [2]; checkerboard row G): 0.008
- MICA (P. aeruginosa CDC 0515 [2]; checkerboard row G): 1.56

Molecule: SEQ ID: 1 (RRWVRRVRRVWRRVVRVVRRWVRR)
- Mean CFU/mL ([3]; 0 min): 1.08E+5 CFU/mL
- CFU/mL ([3]; 0 min): 4.80E+04 CFU/mL and 1.50E+05 CFU/mL and 1.25E+05 CFU/mL
- Mean CFU/mL ([3]; 1 min): 1.68E+3 CFU/mL
- CFU/mL ([3]; 1 min): 8.00E+02 CFU/mL and 3.15E+03 CFU/mL and 1.10E+03 CFU/mL
- CFU/mL 2 ([3]; 5 min): 0 CFU/mL
- Mean CFU/mL ([3]; 5 min): 5.00E+1 CFU/mL
- CFU/mL ([3]; 5 min): 5.00E+01 CFU/mL
- CFU/mL 2 ([3]; […]): 1.00E+02 CFU/mL
- Mean CFU/mL ([3]; […]): 1.17E+2 CFU/mL
